This passage reports pest or weed control results from patent US20110275583A1, “Synergistic active compound combinations” (priority 2010, published 2011).

Read-outs that look alike come from different tables or passages of the source.

Type in all cases: in vivo
In assay [1] the test system is greenhouse red spider mite (Tetranychus urticae). As to the kind of experiment: Tetranychus test, OP-resistant/spray treatment (bean leaf discs). To be noted: Tetranychus urticae, foliar, single active compound. From the text:
(§1) The expected action for a given combination of two active compounds can be calculated as follows, using the formula of S. R. Colby, Weeds 15 (1967), 20-22: • If • X is the kill rate, expressed as % of the untreated control, when employing active compound A at an application rate of m g/ha or in a concentration of in ppm, • Y is the kill rate, expressed as % of the untreated control, when employing active compound B at an application rate of n g/ha or in a concentration of n ppm and • E is the kill rate, expressed as % of the untreated control, when employing active compounds A and B at application rates of m and n g/ha or in a concentration of m and n ppm, • then
(§2) If the actual kill rate exceeds the calculated value, the action of the combination is superadditive, i.e. a synergistic effect is present. In this case, the actually observed kill rate must exceed the value calculated using the above formula for the expected kill rate (E).
(§3) Solvent: 78 parts by weight of acetone • • 1.5 parts by weight of dimethylformamide
(§4) Emulsifier: 0.5 part by weight of alkylaryl polyglycol ether
(§5) To produce a suitable preparation of active compound, 1 part by weight of active compound is mixed with the stated amounts of solvent and emulsifier, and the concentrate is diluted with emulsifier-containing water to the desired concentration.
Discs of bean leaves (Phaseolus vulgaris) which are infested by all stages of the greenhouse red spider mite (Tetranychus urticae) are sprayed with an active compound preparation of the desired concentration.
After the desired period of time, the effect in % is determined. 100% means that all of the spider mites have been killed; 0% means that none of the spider mites have been killed.

Assay [2] deals with armyworm (Spodoptera frugiperda). In words: Spodoptera frugiperda larvae test (sprayed cabbage leaves). To be noted: Spodoptera frugiperda, single active compound.
Excerpt: as §1, §2, §3, §4, §5
Cabbage leaves (Brassica oleracea) are treated by being sprayed with the preparation of active compound of the desired concentration and are populated with the armyworm (Spodoptera frugiperda) while the leaves are still moist.
After the desired period of time, the kill in % is determined. 100% means that all caterpillars have been killed; 0% means that none of the caterpillars have been killed. The kill rates determined are entered, into Colby's formula.

Assay [3] has as its system larvae of the mustard beetle (Phaedon cochleariae). In words: Phaedon cochleariae larvae test (sprayed cabbage leaves). To be noted: Phaedon cochleariae, single active compound.
Excerpt: as §1, §2, §3, §4, §5
Cabbage leaves (Brassica oleracea) are treated by spraying with the active compound preparation of the desired concentration and populated with larvae of the mustard beetle (Phaedon cochleariae) while the leaves are still moist.
After the desired period of time, the kill in % is determined. 100% means that all beetle larvae have been killed; 0% means that none of the beetle larvae have been killed. The kill rates determined are entered into Colby's formula.

Assay [4] concerns green peach aphid (Myzus persicae). In words: Myzus persicae test (spray treatment of infested cabbage leaves). To be noted: Myzus persicae.
Excerpt: as §1, §2, §3, §4, §5
Cabbage leaves (Brassica oleracea) which are heavily infested by the green peach aphid (Myzus persicae) are treated by spraying with the active compound preparation of the desired concentration.
After the desired period of time, the kill in % is determined. 100% means that all of the aphids have been killed; 0% means that none of the aphids have been killed. The kill rates determined are entered into Colby's formula.

Setting [5] is: 48 h, 2 d, read-out: Kill in % after 2 d.
The mark [6] stands for this setting: 144 h, 6 d, read-out: Kill in % after 6 d.
Setting [7] is: 24 h, after 1 d, read-out: Kill in % after 1d.
Where [8] appears, read: 144 h, single active compound, 6 d, read-out: Kill in % after 6 d.

In the case of `Fc1cncc(-c2ncc(-c3cccc(-c4ncccn4)n3)s2)c1` [compound of the formula (I-3)], the pest or weed control at 4 g/ha in assay [1] (setting [5]) is 0%; in assay [1] (setting [6]) it was 0%; in assay [3] (setting [5]) it was 0%; in assay [3] (setting [6]) it was 0%; in assay [4] (setting [7]), 0%; in assay [4] (setting [8]), 70%. For the same compound, the pest or weed control at 20 g/ha in assay [1] (setting [5]) was determined as 0%; in assay [1] (setting [6]) it was 0%; in assay [2] (setting [6]), 0%; in assay [3] (setting [5]), 0%; in assay [4] (setting [7]), 0%; in assay [4] (setting [8]), 70%. The pest or weed control at 500 g/ha in assay [1] (setting [5]), in assay [1] (setting [6]), in assay [2] (setting [5]), in assay [2] (setting [6]), in assay [3] (setting [5]) and in assay [3] (setting [6]) was 0% in each case. The pest or weed control at 500 g/ha in assay [4] (setting [7]) was determined as 0%. The pest or weed control at 100 g/ha in assay [1] (setting [6]), in assay [2] (setting [6]), in assay [3] (setting [5]), in assay [3] (setting [6]) and in assay [4] (setting [7]) was 0% each time.
For `c1cnc(-c2cccc(-c3cnc(-c4cccnc4)s3)n2)nc1` [compound of the formula (I-2)], the pest or weed control at 4 g/ha in assay [1] (setting [5]), in assay [1] (setting [6]), in assay [3] (setting [5]), in assay [3] (setting [6]) and in assay [4] (setting [7]) was 0% each time. In addition, the pest or weed control at 20 g/ha in assay [1] (setting [5]), in assay [2] (setting [5]), in assay [2] (setting [6]), in assay [3] (setting [5]), in assay [3] (setting [6]) and in assay [4] (setting [7]) was 0% in each case. Also, the pest or weed control at 100 g/ha in assay [1] (setting [5]), in assay [2] (setting [5]), in assay [2] (setting [6]), in assay [3] (setting [5]), in assay [3] (setting [6]) and in assay [4] (setting [7]) was 0% in each case. The pest or weed control at 500 g/ha in assay [1] (setting [5]), in assay [1] (setting [6]), in assay [2] (setting [5]), in assay [2] (setting [6]), in assay [3] (setting [5]) and in assay [3] (setting [6]) was 0% throughout. Further, the pest or weed control at 500 g/ha in assay [4] (setting [7]) is 0%.
